Reference: US20250114473A1, “COMPOUND FOR CONJUGATION, CONJUGATE AND PHARMACEUTICAL COMPOSITION COMPRISING THE SAME” (priority 2023, published 2025)
Numbered stars: 1 amine (or outer) side, 2 acyl side, 3 side chain; on linkers, the order of the positions; unused ones are H or OH. Square brackets hold non-standard residues; d marks the D form. Peptide text beside a SMILES is read from it. * marks the point of attachment. Dolaproine = CO[C@@H]([C@@H]1CCCN1)[C@@H](C)C(=O)O; Dil = CC[C@H](C)[C@H](NC)[C@@H](CC(=O)O)OC; PABC = O=C(OCc1ccc(N[*:1])cc1)[*:2]; X1 = C[C@@H](N*)[C@@H](O)c1ccccc1; Cit = NC(=O)NCCC[C@H](N)C(=O)O; NMeV = CN[C@H](C(=O)O)C(C)C

What was measured:
[1] = Water solubility testing (dissolved with minimal DMSO, precipitated by addition of water); format: physicochemical; details: precipitated by addition of water to DMSO solution
Protocol: Briefly, the moiety-compound conjugates was dissolved with minimal DMSO and precipitated by the addition of water. […] However, Entry 5 and Entry 4 are conjugates with two-arm, with no PEG linker or two PEG4 linker, respectively, which were precipitated in 19.5% and 30.8% Water/DMSO. Thus, the results of water solubility of the conjugates are consistent with the inventors' hypothesis.

[2] = Plasma stability, released drug by LC-MS/MS; format: in vitro ADME; details: for free drug percentage: 13 days; for drug release trend: over a 13-day period
From the text: To further advance the research, a set of the compounds in the present disclosure, FL-F21N-L111-P204 and FL-F21N-L106-P204, each containing single-arm and dual-arm respectively, was selected for plasma stability testing in both humans and rats. These were then compared in detail with commercially available Deruxtecan (Dxd) and VC-PAB-MMAE to evaluate their stability and safety in blood.
These calculations were based on standard drugs (e.g., Eribulin, MMAE, Dxd) and they were accurately measured using liquid chromatography-tandem mass spectrometry (LC-MS/MS). […] This trend provides an in-depth understanding of the drug release dynamics.
These experimental results provide crucial data supporting the efficacy and safety of the compounds in the present disclosure.

MDA-MB-231 (HER2−) = experiment: Cell toxicity testing of moiety-drug conjugates (CCK-8); format: cell-based; details: 0-500 nM
Protocol: (§1) The experiment involved optimizing seeding densities (1.5×10^3 to 1.5×10^4 cells/well) for each cell line (SK-BR-3, MCF-7, MDA-MB-231, MDA-MB-436) in 90 IL, of culture medium per well in a 96-well plate for 2-hour incubation. Next, 10 μL of a series of diluted ADC solutions (0-500 nM) were added to each well. The concentration of each ADC solution and measurements at four time points (24, 48, 72, and 96 hours) were conducted in triplicate. […] Data analysis was performed with GraphPad Prism 8.0.1, employing a four-parameter logistic curve-fit program.

SK-BR-3 (HER2 3+) [3] = experiment: as above; format: cell-based; details: 0-500 nM
Protocol: as §1

MDA-MB-436 (HER2−) = experiment: as above; format: cell-based; details: 0-500 nM
Protocol: as §1

MCF-7 (HER2 1+) [4] = experiment: as above; format: cell-based
Protocol: as §1

SK-BR-3 (HER2 3+) [5] = experiment: Anti-proliferation assay (CCK-8) of linker-drug combinations, drugs and cleaved products; format: cell-based; details: 0-1000 nM
Protocol: (§2) Additionally, a series of experiments were conducted, including anti-proliferation assays for linker-drug combinations (i.e. the compounds in the present disclosure), the drugs thereof, and the cleaved products thereof after cleavage by the Cathepsin B enzyme in cells. These assays were performed using HER2-expressing cell lines. MCF-7 and SK-BR-3 cell lines were seeded at a density of 1.5×10^3 to 1×10^4 cells/well in 90 μL of the corresponding culture medium, and cultured at 37° C. in a CO2 incubator (Forma/ThermoFisher (370) or BINDER (CB130)) with a range of dilutions (0-1000 nM) of the compounds in the present disclosure, the drugs thereof, and the cleaved products thereof. Cell density for each sample was recorded by measuring the absorbance of Cell Counting Kit-8 (CCK-8) at 450 nm. Data analysis was performed using GraphPad Prism 8.0.1, and the best-fit four-parameter dose-response curve was selected. Half Maximal Inhibitory Concentration (IC50) values were determined via nonlinear regression; consistency between batches was assessed using One-way ANOVA. The relevant experimental results are detailed in Table 4. […] Such reduced toxicity of the linker-drug combinations (i.e, the compounds in the present disclosure) offers significant advantages in moiety-drug conjugate applications, including better biocompatibility, enhanced therapeutic efficacy, and greater dosing flexibility.

MCF-7 (HER2 1+) [6] = experiment: as above; format: cell-based
Protocol: as §2

Compound	Precipitation in % Water/DMSO [1] [%]	IC50 (MDA-MB-231 (HER2−)) [nM]	IC50 (SK-BR-3 (HER2 3+) [3]) [nM]	IC50 (MDA-MB-436 (HER2−)) [nM]	IC50 (MCF-7 (HER2 1+) [4]; 0-500 nM) [nM]	IC50 (SK-BR-3 (HER2 3+) [5]) [nM]	IC50 (MCF-7 (HER2 1+) [6]; 0-1000 nM) [nM]	also measured
C=C1C[C@@H]2CC[C@@]34CC5O[C@H]6[C@@H](O3)[C@H]3O[C@H](CC[C@@H]3O[C@H]6C5O4)CC(=O)C[C@H]3C(C[C@H]4OC(CC[C@@H]1O2)C[C@@H](C)C4=C)O[C@H](C[C@H](O)CNC(=O)OCCOCCOCCOCCOCCOCCOCCOCCOCCOCCOCCOCCNC(=O)OCc1ccc(NC(=O)[C@H](CCCNC(N)=O)NC(=O)[C@@H](NC(=O)CCCCCN2C(=O)C=CC2=O)C(C)C)cc1)[C@@H]3OC (stereo partly drawn) [FL-F21N-L162-P204, Mal-Val-Cit-PEG12-Eribulin]	31.5							
CC[C@H](C)[C@@H]([C@@H](CC(=O)N1CCC[C@H]1[C@H](OC)[C@@H](C)C(=O)N[C@H](C)[C@@H](O)c1ccccc1)OC)N(C)C(=O)[C@@H](NC(=O)[C@H](C(C)C)N(C)C(=O)OCc1ccc(NC(=O)[C@H](CCCNC(N)=O)NC(=O)[C@@H](N)C(C)C)cc1)C(C)C [VC-PAB-MMAE, reference compound] (H-V[Cit][PABC][NMeV]V[Dil][Dolaproine]-X1)								free drug percentage ([2]; human plasma): 0.56%; free drug percentage ([2]; rat plasma): 5.03%
Dxd [P209, reference compound]		135	5.51	5.12	9.53	5.51	9.53	
C=C1C[C@@H]2CC[C@@]34CC5O[C@H]6[C@@H](O3)[C@H]3O[C@H](CC[C@@H]3O[C@H]6C5O4)CC(=O)C[C@H]3C(C[C@H]4OC(CC[C@@H]1O2)C[C@@H](C)C4=C)O[C@H](C[C@H](O)CNC(=O)OCCOCCOCCOCCOCCOCCOCCOCCOCCOCCOCCOCCOCCOCCOCCOCCOCCOCCOCCOCCOCCOCCOCCOCCNC(=O)OCc1ccc(NC(=O)[C@H](CCCNC(N)=O)NC(=O)[C@@H](NC(=O)CCCCCN2C(=O)C=CC2=O)C(C)C)cc1)[C@@H]3OC (stereo partly drawn) [FL-F21N-L163-P204, Mal-Val-Cit-PEG24-Eribulin]	38.9							
C=C1C[C@@H]2CC[C@@]34C[C@H]5O[C@H]6[C@@H](O3)[C@H]3O[C@H](CC[C@@H]3O[C@H]6[C@H]5O4)CC(=O)C[C@@H]3[C@@H](OC)[C@@H](C[C@H](O)CN)O[C@H]3C[C@H]3O[C@@H](CC[C@@H]1O2)C[C@@H](C)C3=C [P204, Eribulin, reference compound]								IC50 (MDA-MB-231 (HER2−); Homo sapiens): 2.07 nM; IC50 (SK-BR-3 (HER2 3+) [3]; Homo sapiens): 0.244 nM; IC50 (MDA-MB-436 (HER2−); Homo sapiens): 1.28 nM; IC50 (MCF-7 (HER2 1+) [4]; Homo sapiens, MCF7, 0-500 nM): 0.337 nM; IC50 (SK-BR-3 (HER2 3+) [5]; Homo sapiens): 0.244 nM; IC50 (MCF-7 (HER2 1+) [6]; Homo sapiens, MCF7, 0-1000 nM): 0.337 nM
Trastuzumab-Mal-Val-Cit-PAB-(PEG4-Eribulin)2 [A701-L106-P204-D08]		75.2	0.0216	14.6	0.0229			
Mal-Val-Cit-PAB-(PEG4-Eribulin)2 [FL-F21N-L106-P204]	30.8					13	26.3	free drug percentage ([2]; human plasma): 2.74%; drug release trend ([2]; human plasma): stable drug release trends; free drug percentage ([2]; rat plasma): 3.50%; drug release trend ([2]; rat plasma): stable drug release trends
C=C1C[C@@H]2CC[C@@]34CC5O[C@H]6C(O3)[C@H]3O[C@H](CC[C@@H]3O[C@H]6[C@H]5O4)CC(=O)C[C@@H]3[C@@H](OC)[C@@H](C[C@H](O)CNC(=O)OCCOCCOCCOCCNC(=O)OCc4ccc(NC(=O)[C@H](CCCNC(N)=O)NC(=O)[C@@H](NC(=O)CCCCCN5C(=O)C=CC5=O)C(C)C)cc4)O[C@H]3CC3O[C@@H](CCC1O2)C[C@@H](C)C3=C [FL-F21N-L111-P204, Mal-Val-Cit-PAB-PEG4-Eribulin]	24.5							IC50 (SK-BR-3 (HER2 3+) [5]; Homo sapiens): 30.8 nM; IC50 (MCF-7 (HER2 1+) [6]; Homo sapiens, MCF7, 0-1000 nM): 45.5 nM; drug release trend ([2]; human plasma): stable drug release trends; drug release trend ([2]; rat plasma): stable drug release trends
Trastuzumab-Mal-Val-Cit-PAB-PEG4-Eribulin [A701-L111-P204-D08]		> 250	0.012	33	0.045			
Mal-Val-Cit-PAB-(Eribulin)2 [FL-F21N-L107-P204]	19.5					9.24	14.2	
Trastuzumab-Mal-Val-Cit-PAB-(Eribulin)2 [A701-L107-P204-D08]			0.0172		0.0229			
Deruxtecan [L155-P209 (Deruxtecan), reference compound]						432	512	free drug percentage ([2]; human plasma): 5.19%; free drug percentage ([2]; rat plasma): 0.70%
Trastuzumab-Mal-Val-Cit-PAB-PEG4-Eribulin [A701-L111-P204-D04]		148	0.012	> 250	3.83			
